Patent publication US7504508B2, “PGD2 receptor antagonists for the treatment of inflammatory diseases” (Millennium Pharmaceuticals, Inc., priority 2002, dated 2009)

What follows are compounds tested against T1, cloned human CRTH2 receptor (Homo sapiens, UniProt Q9Y5Y4) (assay: Radioligand membrane binding assay: inhibition of [3H] PGD2 binding to CRTH2 (Scintillation Proximity Assay)). Details: inhibition of [3H] PGD2 binding to membranes of HEK-293 cells stably expressing human CRTH2; SPA; 10 point curve from 10 μM; room temperature, approximately 2 hours.
T1 construct: purchased Biosignal; host or cells: HEK-293 cells stably expressing human CRTH2 and G-alpha-16 (membranes)
T1 sequence (Q9Y5Y4 1-395): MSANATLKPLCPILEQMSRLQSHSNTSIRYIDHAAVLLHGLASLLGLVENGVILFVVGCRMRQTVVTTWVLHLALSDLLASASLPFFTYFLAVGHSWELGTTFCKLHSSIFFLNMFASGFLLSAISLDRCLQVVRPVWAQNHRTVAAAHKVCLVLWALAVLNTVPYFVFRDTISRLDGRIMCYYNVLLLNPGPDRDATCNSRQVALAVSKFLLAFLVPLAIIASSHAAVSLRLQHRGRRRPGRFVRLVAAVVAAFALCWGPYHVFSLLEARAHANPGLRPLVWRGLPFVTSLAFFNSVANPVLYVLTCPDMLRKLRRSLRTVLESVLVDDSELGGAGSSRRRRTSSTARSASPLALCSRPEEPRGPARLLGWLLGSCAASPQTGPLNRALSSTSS
Summary of the method: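 Scintillation proximity binding of [3H] PGD2 (at KD or lower) to membranes of HEK-293 cells stably expressing human CRTH2, in 50 mM Tris-HCl pH 7.5, 5 mM MgCl2, 1 mM EDTA. Ten-point 3-fold series from 10 μM final, ~2 h at room temperature; cold PGD2 defines NSB; percent inhibition, duplicate runs (n=2).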
Compound `CC(=O)N(c1ccccc1)C1CC(C)N(C(=O)c2sc(-c3ccccc3)nc2C)c2ccccc21` (stereo not shown) [Compound A-156] has a Ki of less than 10 µM.
`CC(=O)N(c1ccc(Cl)cc1)[C@H]1C[C@@H](C)N(C(=O)c2cccs2)c2ccccc21` [Compound B-7, (2R,4S)-cis-N-(4-chloro-phenyl)-N-[2-methyl-1-(thiophene-2-carbonyl)-1,2,3,4-tetrahydro-quinolin-4-yl]-acetamide] was tested, and the Ki was less than 10 µM.
In the case of `COc1cccc(C(=O)N2c3ccccc3[C@@H](N(C(C)=O)c3ccc(Cl)cc3)C[C@H]2C)c1` [Compound B-9, (2R,4S)-cis-N-(4-chloro-phenyl)-N-[1-(3-methoxy-benzoyl)-2-methyl-1,2,3,4-tetrahydro-quinolin-4-yl]-acetamide], the Ki is reported as less than 10 µM.
`Cc1ccc(C(=O)N2c3ccccc3[C@@H](N(C(=O)C(C)C)c3ccc(Cl)cc3)C[C@H]2C)s1` [Compound B-11, (2R,4S)-cis-N-(4-Chloro-phenyl)-N-[2-methyl-1-(5-methyl-thiophene-2-carbonyl)-1,2,3,4-tetrahydro-quinolin-4-yl]-isobutyramide] gave a Ki of less than 10 µM.
Compound `CCC(=O)N(c1ccc(Cl)cc1)[C@H]1C[C@@H](C)N(C(=O)c2ccc(OC)cc2)c2ccccc21` [Compound B-18, (2R,4S)-cis-N-(4-chloro-phenyl)-N-[1-(4-methoxy-benzoyl)-2-methyl-1,2,3,4-tetrahydro-quinolin-4-yl]-propionamide] has a Ki of less than 10 µM.
For `CC(=O)N(c1ccc(Cl)cc1)[C@H]1C[C@@H](C)N(C(=O)c2ccc(F)cc2)c2ccccc21` [Compound B-26, (2R,4S)-cis-N-(4-chloro-phenyl)-N-[1-(4-fluoro-benzoyl)-2-methyl-1,2,3,4-tetrahydro-quinolin-4-yl]-acetamide], the Ki was less than 10 µM.
Compound `CC(=O)N(c1ccc(Cl)cc1)[C@H]1C[C@@H](C)N(C(=O)c2ccc(C)s2)c2ccccc21` [Compound B-28, (2R,4S)-cis-N-(4-Chloro-phenyl)-N-[2-methyl-1-(5-methyl-thiophene-2-carbonyl)-1,2,3,4-tetrahydro-quinolin-4-yl]-acetamide] has a Ki of less than 10 µM.
In the case of `COc1ccc(C(=O)N2c3ccccc3[C@@H](N(C(C)=O)c3ccc(Cl)cc3)C[C@H]2C)cc1` [Compound B-34, (2R,4S)-cis-N-(4-Chloro-phenyl)-N-[1-(4-methoxy-benzoyl)-2-methyl-1,2,3,4-tetrahydro-quinolin-4-yl]-acetamide], the Ki is reported as less than 10 µM.
With `COc1ccc(C(=O)N2c3cc(C)ccc3[C@@H](N(C(C)=O)c3ccc(Cl)cc3)C[C@H]2C)cc1` [Compound B-58, (2R,4S)-cis-N-(4-chloro-phenyl)-N-[1-(4-methoxy-benzoyl)-2,7-dimethyl-1,2,3,4-tetrahydro-quinolin-4-yl]-acetamide] the Ki was less than 10 µM.
Compound `CCOCCOc1ccc2c(c1)C(N(C(=O)CC)c1ccc(Cl)cc1)CC(C)N2C(=O)c1ccc(F)cc1` (stereo not shown) [Compound B-68] has a Ki of less than 10 µM.
`CC(=O)N(c1ccc(Cl)cc1)[C@@H]1C[C@H](C)N(C(=O)c2ccc(/C=C/C(=O)O)cc2)c2ccccc21` [Compound C-33, (2S,4R)-3-(4-{4-[Acetyl-(4-chloro-phenyl)-amino]-2-methyl-3,4-dihydro-2H-quinoline-1-carbonyl}-phenyl)-acrylic acid] showed a Ki of less than 10 µM.
In the case of `COc1ccc(C(=O)N2c3ccccc3[C@H](N(C(C)=O)c3ccc(C(=O)O)cc3)C[C@@H]2C)cc1` [Compound C-37, (2S,4R)-4-{Acetyl-[1-(4-methoxy-benzoyl)-2-methyl-1,2,3,4-tetrahydro-quinolin-4-yl]-amino}-benzoic acid], the Ki is reported as less than 10 µM.
`COc1ccc(C(=O)N2c3ccccc3[C@H](N(C(C)=O)c3cccc(CN)c3)C[C@@H]2C)cc1` [Compound C-38, (2S,4R)-N-(3-Aminomethyl-phenyl)-N-[1-(4-methoxy-benzoyl)-2-methyl-1,2,3,4-tetrahydro-quinolin-4-yl]-acetamide] gave a Ki of less than 10 µM.
For `COc1ccc(C(=O)N2c3ccccc3[C@H](N(C(C)=O)c3ccc(C(C)(C)C(=O)O)cc3)C[C@@H]2C)cc1` [Compound D-1, (2S,4R)-2-(4-{Acetyl-[1-(4-methoxy-benzoyl)-2-methyl-1,2,3,4-tetrahydro-quinolin-4-yl]-amino}-phenyl)-2-methyl-propionic acid], the Ki was less than 10 µM.
Compound `COc1ccc(C(=O)N2c3ccccc3[C@H](N(C(C)=O)c3ccc(C(=O)CCC(=O)O)c(Cl)c3)C[C@@H]2C)cc1` [Compound D-2, (2S,4R)-4-(4-{Acetyl-[1-(4-methoxy-benzoyl)-2-methyl-1,2,3,4-tetrahydro-quinolin-4-yl]-amino}-2-chloro-phenyl)-4-oxo-butyric acid] has a Ki of less than 10 µM.
`COc1ccc(C(=O)N2c3ccccc3[C@H](N(C(C)=O)c3ccc(CCC(=O)O)cc3)C[C@@H]2C)cc1` [Compound D-6, (2S,4R)-3-(4-{Acetyl-[1-(4-methoxy-benzoyl)-2-methyl-1,2,3,4-tetrahydro-quinolin-4-yl]-amino}-phenyl)-propionic acid] showed a Ki of less than 10 µM.
`COc1ccc(C(=O)N2c3ccccc3[C@H](N(C(C)=O)c3ccc(OCC(=O)O)cc3)C[C@@H]2C)cc1` [Compound D-10, (2S,4R)-(4-{Acetyl-[1-(4-methoxybenzoyl)-2-methyl-1,2,3,4-tetrahydro-quinolin-4-yl]-amino}-phenoxy)-acetic acid] showed a Ki of less than 10 µM.
In the case of `COc1cccc(C(=O)N2c3ccccc3C(N(C(C)=O)c3ccccc3)CC2(C)C)c1` (stereo not shown) [Compound F-1, N-[1-(3-Methoxy-benzoyl)-2,2-dimethyl-1,2,3,4-tetrahydro-quinolin-4-yl]-N-phenyl-acetamide], the Ki is reported as less than 60 µM.
Compound `COc1cccc(C(=O)N2CCC(N(C(C)=O)c3ccccc3)c3ccccc32)c1` (stereo not shown) [Compound F-3, N-[1-(3-Methoxy-benzoyl)-1,2,3,4-tetrahydro-quinolin-4-yl]-N-phenyl-acetamide] has a Ki of less than 10 µM.
